Patent publication US20050182025A1, “Amidinylphenyl compounds and their use as fungicides” (priority 2002, published 2005)

How the values were obtained:
Assay type in all cases: in vivo
Septoria nodorum = assay: Test C: preventive spray on wheat seedlings, Septoria glume blotch, disease rating; details: wheat seedlings sprayed to run-off, inoculated the following day with Septoria nodorum, 48 h saturated atmosphere then 9 days at 20° C.; test concentration not given
Method in brief: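 Preventive test: one day after spraying (to run-off; 200 ppm ≈ 500 g/ha, in acetone/water with 250 ppm surfactant), seedlings received a S. nodorum spore suspension. After 48 h in saturated air and 9 days in a growth chamber, both at 20° C., % disease control versus controls was scored.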

[1] = tested on: Erysiphe graminis f. sp. tritici; assay: Test A: preventive spray on wheat seedlings, wheat powdery mildew, disease rating; details: wheat seedlings sprayed to run-off, inoculated the following day with Erysiphe graminis f. sp. tritici, rated after 7 days at 20° C.; test concentration not given
Method in brief: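 Preventive test: Erysiphe graminis f. sp. tritici spore dust applied one day after run-off spraying of seedlings with acetone/water/surfactant suspension, 200 ppm equating to 500 g/ha. Plants held 7 days at 20 °C; ratings give % disease control versus controls, 100 full, 0 none.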

Puccinia recondita = assay: Test B: preventive spray on wheat seedlings, wheat leaf rust, disease rating; details: wheat seedlings sprayed to run-off, inoculated the following day with Puccinia recondita, 24 h saturated atmosphere then 6 days at 20° C.; test concentration not given
Method in brief: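 Preventive test: seedlings inoculated with Puccinia recondita one day after run-off spraying with test suspension (acetone/water, 250 ppm Trem 014; 200 ppm equals 500 g/ha). Rating after 24 h at 20° C in saturation plus 6 days in 20° C growth chamber; 0–100 scale versus controls.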

Structure (SMILES)	Test C disease control rating (100 = 100% disease control, 0 = no disease control relative to the controls) (Septoria nodorum) [%]	Test A disease control rating (100 = 100% disease control, 0 = no disease control relative to the controls) [1] [%]	Test B disease control rating (100 = 100% disease control, 0 = no disease control relative to the controls) (Puccinia recondita) [%]
C=CCCCCOc1cc(C)c(N=CN(C)C)cc1C [Compound 5]	89	0	100
CCN(C)C(=S)Nc1cc(C)c(OCCC[Si](C)(CC)CC)cc1C [compound 79]	100	0	99
CCN(C)C(=S)Nc1cc(C)c(OCCCC(C)(C)C)cc1C [compound 194]	100	99	100
CCCN(C)C(=S)Nc1cc(C)c(OCCC[Si](C)(C)CC)cc1C [compound 78]	100	0	98
CCCCCCOc1cc(C)c(N=CN(C)C)cc1C [Compound 20]	99	96	100
Cc1cc(OCCC[Si](C)(C)C)c(C)cc1NC(=S)N(C)C [compound 167]	100	99	99
COC(C)(C)CCCOc1cc(C)c(N=CN(C)C)cc1C [Compound 43]	93	96	100
CCN(C)C(=S)Nc1cc(Cl)c(OCCCC(C)C)c(Cl)c1C [compound 118]	78	99	100
C=CCN(C)C=Nc1cc(Cl)c(OCCC[Si](C)(C)C)cc1C [compound 56]	100	100	100
CCN(CC)C(=S)Nc1cc(C)c(OCCCC(C)(C)C)cc1C [compound 191]	91	63	99
CCCCN(C)C=Nc1cc(F)c(OCCC[Si](C)(C)C)cc1C [compound 62]	100	100	100
Cc1cc(OCCCC(C)(C)C)c(Cl)cc1N=CN(C)C [compound 176]	100	43	99
CCCCC(CCC)Sc1cc(C)c(N=CN(C)C)cc1C (stereo not drawn) [compound 141]	100	0	99
C=C(C)CC(CC)Sc1cc(C)c(N=CN(C)C)cc1C (stereo not drawn) [compound 161]	53	72	100
